Reference: ChEMBL document CHEMBL4308841, “Synthesis, in vitro antiproliferative activity, and kinase inhibitory effects of pyrazole-containing diarylureas and diarylamides” (Eur J Med Chem, 2018)

Experiments:
Assay type in all cases: functional
HL-60(TB) = test: Growth inhibition of human HL-60(TB) cells assessed as cell growth at 10 uM incubated for 48 hrs by sulforhodamine B assay relative to control; settings: HL-60, 48 h, read-out: Activity
K562 = test: Growth inhibition of human K562 cells assessed as cell growth at 10 uM incubated for 48 hrs by sulforhodamine B assay relative to control; settings: K562, 48 h, read-out: Activity
RPMI-8226 = test: Growth inhibition of human RPMI8226 cells assessed as cell growth at 10 uM incubated for 48 hrs by sulforhodamine B assay relative to control; settings: RPMI-8226, 48 h, read-out: Activity
SR = test: Growth inhibition of human SR cells assessed as cell growth at 10 uM incubated for 48 hrs by sulforhodamine B assay relative to control; settings: read-out: Activity
NCI-H226 = test: Growth inhibition of human NCI-H226 cells assessed as cell growth at 10 uM incubated for 48 hrs by sulforhodamine B assay relative to control; settings: NCI-H226, 48 h, read-out: Activity
NCI-H460 = test: Growth inhibition of human NCI-H460 cells assessed as cell growth at 10 uM incubated for 48 hrs by sulforhodamine B assay relative to control; settings: NCI-H460, 48 h, read-out: Activity
HCC 2998 = test: Growth inhibition of human HCC2998 cells assessed as cell growth at 10 uM incubated for 48 hrs by sulforhodamine B assay relative to control; settings: HCC 2998, 48 h, read-out: Activity
HCT-116 = test: Growth inhibition of human HCT116 cells assessed as cell growth at 10 uM incubated for 48 hrs by sulforhodamine B assay relative to control; settings: HCT-116, 48 h, read-out: Activity
KM12 = test: Growth inhibition of human KM12 cells assessed as cell growth at 10 uM incubated for 48 hrs by sulforhodamine B assay relative to control; settings: KM12, 48 h, read-out: Activity
SW-620 = test: Growth inhibition of human SW620 cells assessed as cell growth at 10 uM incubated for 48 hrs by sulforhodamine B assay relative to control; settings: SW-620, 48 h, read-out: Activity
SF-268 = test: Growth inhibition of human SF268 cells assessed as cell growth at 10 uM incubated for 48 hrs by sulforhodamine B assay relative to control; settings: SF-268, 48 h, read-out: Activity
SF-295 = test: Growth inhibition of human SF295 cells assessed as cell growth at 10 uM incubated for 48 hrs by sulforhodamine B assay relative to control; settings: SF-295, 48 h, read-out: Activity
SF-539 = test: Growth inhibition of human SF539 cells assessed as cell growth at 10 uM incubated for 48 hrs by sulforhodamine B assay relative to control; settings: SF-539, 48 h, read-out: Activity
SNB-19 = test: Growth inhibition of human SNB19 cells assessed as cell growth at 10 uM incubated for 48 hrs by sulforhodamine B assay relative to control; settings: SNB-19, 48 h, read-out: Activity
SNB-75 = test: Growth inhibition of human SNB75 cells assessed as cell growth at 10 uM incubated for 48 hrs by sulforhodamine B assay relative to control; settings: SNB-75, 48 h, read-out: Activity
U-251 = test: Growth inhibition of human U251 cells assessed as cell growth at 10 uM incubated for 48 hrs by sulforhodamine B assay relative to control; settings: U-251, 48 h, read-out: Activity
LOX IMVI = test: Growth inhibition of human LOXIMVI cells assessed as cell growth at 10 uM incubated for 48 hrs by sulforhodamine B assay relative to control; settings: read-out: Activity
M14 = test: Growth inhibition of human M14 cells assessed as cell growth at 10 uM incubated for 48 hrs by sulforhodamine B assay relative to control; settings: M14, 48 h, read-out: Activity
MDA-MB-435 = test: Growth inhibition of human MDA-MB-435 cells assessed as cell growth at 10 uM incubated for 48 hrs by sulforhodamine B assay relative to control; settings: MDA-MB-435, 48 h, read-out: Activity
UACC-62 = test: Growth inhibition of human UACC62 cells assessed as cell growth at 10 uM incubated for 48 hrs by sulforhodamine B assay relative to control; settings: UACC-62, 48 h, read-out: Activity
IGROV-1 = test: Growth inhibition of human IGROV1 cells assessed as cell growth at 10 uM incubated for 48 hrs by sulforhodamine B assay relative to control; settings: IGROV-1, 48 h, read-out: Activity
OVCAR-3 = test: Growth inhibition of human OVCAR3 cells assessed as cell growth at 10 uM incubated for 48 hrs by sulforhodamine B assay relative to control; settings: OVCAR-3, 48 h, read-out: Activity
OVCAR-4 = test: Growth inhibition of human OVCAR4 cells assessed as cell growth at 10 uM incubated for 48 hrs by sulforhodamine B assay relative to control; settings: OVCAR-4, 48 h, read-out: Activity
OVCAR-5 = test: Growth inhibition of human OVCAR5 cells assessed as cell growth at 10 uM incubated for 48 hrs by sulforhodamine B assay relative to control; settings: OVCAR-5, 48 h, read-out: Activity
SK-OV-3 = test: Growth inhibition of human SKOV3 cells assessed as cell growth at 10 uM incubated for 48 hrs by sulforhodamine B assay relative to control; settings: SK-OV-3, 48 h, read-out: Activity
ACHN = test: Growth inhibition of human ACHN cells assessed as cell growth at 10 uM incubated for 48 hrs by sulforhodamine B assay relative to control; settings: read-out: Activity
CAKI-1 = test: Growth inhibition of human Caki1 cells assessed as cell growth at 10 uM incubated for 48 hrs by sulforhodamine B assay relative to control; settings: CAKI-1, 48 h, read-out: Activity
RXF 393 = test: Growth inhibition of human RXF393 cells assessed as cell growth at 10 uM incubated for 48 hrs by sulforhodamine B assay relative to control; settings: RXF 393, 48 h, read-out: Activity
MDA-MB-231 = test: Growth inhibition of human MDA-MB-231 cells assessed as cell growth at 10 uM incubated for 48 hrs by sulforhodamine B assay relative to control; settings: MDA-MB-231, 48 h, read-out: Activity
Hs-578T = test: Growth inhibition of human Hs578T cells assessed as cell growth at 10 uM incubated for 48 hrs by sulforhodamine B assay relative to control; settings: read-out: Activity
BT-549 = test: Growth inhibition of human BT549 cells assessed as cell growth at 10 uM incubated for 48 hrs by sulforhodamine B assay relative to control; settings: BT-549, 48 h, read-out: Activity
T47D = test: Growth inhibition of human T47D cells assessed as cell growth at 10 uM incubated for 48 hrs by sulforhodamine B assay relative to control; settings: read-out: Activity
MDA-MB-468 = test: Growth inhibition of human MDA-MB-468 cells assessed as cell growth at 10 uM incubated for 48 hrs by sulforhodamine B assay relative to control; settings: MDA-MB-468, 48 h, read-out: Activity

Row | SMILES | growth at 10 µM (HL-60(TB)) | growth at 10 µM (K562) | growth at 10 µM (RPMI-8226) | growth at 10 µM (SR) | growth at 10 µM (NCI-H226) | growth at 10 µM (NCI-H460) | growth at 10 µM (HCC 2998) | growth at 10 µM (HCT-116) | growth at 10 µM (KM12) | growth at 10 µM (SW-620) | growth at 10 µM (SF-268) | growth at 10 µM (SF-295) | growth at 10 µM (SF-539) | growth at 10 µM (SNB-19) | growth at 10 µM (SNB-75) | growth at 10 µM (U-251) | growth at 10 µM (LOX IMVI) | growth at 10 µM (M14) | growth at 10 µM (MDA-MB-435) | growth at 10 µM (UACC-62) | also measured
1 | COc1cc(Cl)cc(-c2nn(-c3cccc(NC(=O)c4ccc(N5CCOCC5)c(C(F)(F)F)c4)c3)cc2-c2ccncc2)c1 | 2.73% | 4.03% | 25.2% | 18.4% | 64.2% | 29.3% | 52.3% | 47.8% | 38.4% | 69.2% | 67.3% | 2.6% | 52.1% | 75.5% | 34.9% | 32.3% | 47.3% | 56.7% | 63.4% | 67.8% | growth at 10 µM (IGROV-1): 96.5%; growth at 10 µM (OVCAR-3): 69.4%; growth at 10 µM (OVCAR-4): 67.9%; growth at 10 µM (OVCAR-5): 78.4%; growth at 10 µM (SK-OV-3): 75.7%; growth at 10 µM (ACHN): 50.1%; growth at 10 µM (CAKI-1): 46.7%; growth at 10 µM (RXF 393): 12.4%; growth at 10 µM (MDA-MB-231): 11.4%; growth at 10 µM (Hs-578T): 40.7%; growth at 10 µM (BT-549): 73%; growth at 10 µM (T47D): 49.2%; growth at 10 µM (MDA-MB-468): 50.2%
2 | COc1cc(Cl)cc(-c2nn(-c3cccc(NC(=O)c4cc(C(F)(F)F)cc(C(F)(F)F)c4)c3)cc2-c2ccncc2)c1 | 84.3% | 38% | 43.6% | 41% | 76% | 41% | 78.3% | 35.2% | 55.5% | 86.2% | 89.2% | 42.1% | 80% | 86.4% | 60.8% | 60.7% | 76.1% | 67.3% | 80% | 81.4% | growth at 10 µM (IGROV-1): 100%; growth at 10 µM (OVCAR-3): 25.5%; growth at 10 µM (OVCAR-4): 72.1%; growth at 10 µM (OVCAR-5): 83%; growth at 10 µM (SK-OV-3): 83.4%; growth at 10 µM (ACHN): 58.2%; growth at 10 µM (CAKI-1): 68.6%; growth at 10 µM (RXF 393): 67.7%; growth at 10 µM (MDA-MB-231): 56.7%; growth at 10 µM (Hs-578T): 81.1%; growth at 10 µM (BT-549): 96.8%; growth at 10 µM (T47D): 53.4%; growth at 10 µM (MDA-MB-468): 46.5%
3 | COc1cc(Cl)cc(-c2nn(-c3cccc(NC(=O)Nc4cccc(C(F)(F)F)c4)c3)cc2-c2ccncc2)c1 | -7.89% | 7.61% | -14.2% | -13.5% | 3.94% | -6.11% | 19% | 5.07% | 9.81% | 11.2% | 27.9% | -7.87% | 17% | 16.1% | 12.5% | 4.59% | 4.64% | 9.99% | -20.9% | -11.5% | growth at 10 µM (IGROV-1): 28.9%; growth at 10 µM (OVCAR-3): -0.41%; growth at 10 µM (OVCAR-4): 3.28%; growth at 10 µM (OVCAR-5): 34.1%; growth at 10 µM (SK-OV-3): 14.2%; growth at 10 µM (ACHN): 5.44%; growth at 10 µM (CAKI-1): 16.1%; growth at 10 µM (RXF 393): 11.8%; growth at 10 µM (MDA-MB-231): -9.21%; growth at 10 µM (Hs-578T): 23.1%; growth at 10 µM (BT-549): 12.9%; growth at 10 µM (T47D): -0.45%; growth at 10 µM (MDA-MB-468): 6.89%
4 | O=C(Nc1cccc(-n2cc(-c3ccncc3)c(-c3cc(O)cc(Cl)c3)n2)c1)Nc1ccc(Cl)c(Cl)c1 | -23.4% | 1.06% | -15.3% | -21.4% | 14.5% | 0.21% | 0.57% | -57.3% | 2.26% | -33.8% | 16.2% | -50.5% | -29% | 30.8% | 4.08% | -56.5% | -84.7% | -69.2% | -33.3% | -61.8% | growth at 10 µM (IGROV-1): 26%; growth at 10 µM (OVCAR-3): -47.4%; growth at 10 µM (OVCAR-4): 10.7%; growth at 10 µM (OVCAR-5): -2.26%; growth at 10 µM (SK-OV-3): 13.2%; growth at 10 µM (ACHN): 6.85%; growth at 10 µM (CAKI-1): 5.31%; growth at 10 µM (RXF 393): -70.3%; growth at 10 µM (MDA-MB-231): -38.1%; growth at 10 µM (Hs-578T): -6.42%; growth at 10 µM (BT-549): 0.54%; growth at 10 µM (T47D): -5.53%; growth at 10 µM (MDA-MB-468): -1.88%
